# Laboratory results reported in patent US20070049564A1 (Wyeth, priority 2005, published 2007).
# Like-named read-outs stand apart in the source and are kept apart here.
# Tests used:
# E. coli GC 2231 = experiment: MIC, broth microdilution; conditions: Escherichia coli, GC2231, E. coli GC 2231
# E. coli GC 2232 = experiment: MIC, broth microdilution; conditions: Escherichia coli, GC2232, E. coli GC 2232
# E. coli GC 2272 = experiment: MIC, broth microdilution; conditions: Escherichia coli, GC2272, E. coli GC 2272
# E. coli GC 4560 = experiment: MIC, broth microdilution; conditions: Escherichia coli, GC4560, E. coli GC 4560
# E. coli GC 6465 = experiment: MIC, broth microdilution; conditions: Escherichia coli, GC6465, E. coli GC 6465
# E. coli GC 3226 = experiment: MIC, broth microdilution; conditions: Escherichia coli, GC3226, E. coli GC 3226
# E. coli GC 2203 = experiment: MIC, broth microdilution; conditions: Escherichia coli, GC2203, E. coli GC 2203
# S. typhimurium GC 2172 = experiment: MIC, broth microdilution; conditions: Salmonella enterica, TYPHIMURIUM, S. typhimurium GC 2172
# S. aureus GC 6466 = experiment: MIC, broth microdilution; conditions: Staphylococcus aureus, GC6466, S. aureus GC 6466
# S. aureus GC 6467 = experiment: MIC, broth microdilution; conditions: Staphylococcus aureus, GC6467, S. aureus GC 6467
# S. aureus GC 4536 = experiment: MIC, broth microdilution; conditions: Staphylococcus aureus, GC4536, S. aureus GC 4536
# S. aureus GC 6469 = experiment: MIC, broth microdilution; conditions: Staphylococcus aureus, GC6469, S. aureus GC 6469
# E. faecalis GC 4555 = experiment: MIC, broth microdilution; conditions: Enterococcus faecalis, GC4555, E. faecalis GC 4555
# Experimental: Antimicrobial susceptibility testing. The in vitro activities of the antibiotics are determined by the broth microdilution method as recommended by the National Committee for Clinical Laboratory Standards (NCCLS) (1). Mueller-Hinton II broth (MHBII)(BBL Cockeysville, Md.) is the medium employed in the testing procedures. Microtiter plates containing serial dilutions of each antimicrobial agent are inoculated with each organism to yield the appropriate density (10^5 CFU/ml) in a 100 μl final volume. The plates are incubated for 18-22 hours at 35° C. in ambient air.
# Representative compounds were first incubated in mouse serum for an hour prior to the in vitro testing against a panel of selected gram-positive and gram-negative bacteria strains. All compounds were also pre-incubated in water for an hour prior to testing as control. Representative compounds of Formula I were incubated in human serum prior to MIC determination.
# E. faecalis GC 2265 = experiment: MIC, broth microdilution; conditions: Enterococcus faecalis, GC2265, E. faecalis GC 2265
# E. faecalis GC 2267 = experiment: MIC, broth microdilution; conditions: Enterococcus faecalis, GC2267, E. faecalis GC 2267
# E. faecium GC 2243 = experiment: MIC, broth microdilution; conditions: Enterococcus faecium, GC2243, E. faecium GC 2243
# S. pneumoniae* GC 4465 = experiment: MIC, broth microdilution; conditions: Streptococcus pneumoniae, S. pneumoniae* GC 4465
# S. agalactiae GC 4564 = experiment: MIC, broth microdilution; conditions: Streptococcus agalactiae, GC4564, S. agalactiae GC 4564
# Staph. = experiment: Range of MIC for Staph. strains, including MRSA; conditions: Staphylococcus aureus, MRSA
# [1] = read-out: Range of MIC, Staph (Mouse Serum)
# [2] = read-out: Range of MIC, Staph (Water)
Structure (SMILES),MIC (E. coli GC 2231; Mouse Serum pre-incubation) [µg/mL],MIC (E. coli GC 2231; Water pre-incubation) [µg/mL],MIC (E. coli GC 2232; Mouse Serum pre-incubation) [µg/mL],MIC (E. coli GC 2232; Water pre-incubation) [µg/mL],MIC (E. coli GC 2272; Mouse Serum pre-incubation) [µg/mL],MIC (E. coli GC 2272; Water pre-incubation) [µg/mL],MIC (E. coli GC 4560; Mouse Serum pre-incubation) [µg/mL],MIC (E. coli GC 4560; Water pre-incubation) [µg/mL],MIC (E. coli GC 6465; Mouse Serum pre-incubation) [µg/mL],MIC (E. coli GC 6465; Water pre-incubation) [µg/mL],MIC (E. coli GC 3226; Mouse Serum pre-incubation) [µg/mL],MIC (E. coli GC 3226; Water pre-incubation) [µg/mL],MIC (E. coli GC 2203; Mouse Serum pre-incubation) [µg/mL],MIC (E. coli GC 2203; Water pre-incubation) [µg/mL],MIC (S. typhimurium GC 2172; Mouse Serum pre-incubation) [µg/mL],MIC (S. typhimurium GC 2172; Water pre-incubation) [µg/mL],MIC (S. aureus GC 6466; Mouse Serum pre-incubation) [µg/mL],MIC (S. aureus GC 6466; Water pre-incubation) [µg/mL],MIC (S. aureus GC 6467; Mouse Serum pre-incubation) [µg/mL],MIC (S. aureus GC 6467; Water pre-incubation) [µg/mL],also measured
"CCCN(CC(=O)Nc1cc(N(C)C)c2c(c1O)C(=O)C1=C(O)[C@]3(O)C(=O)C(C(N)=O)=C(O)[C@@H](N(C)C)[C@@H]3C[C@@H]1C2)C(=O)OCc1ccccc1 [Example 14, benzyl 2-{[(5aR,6aS,7S,10aS)-9-(aminocarbonyl)-4,7-bis(dimethylamino)-1,8,10a,11-tetrahydroxy-10,12-dioxo-5,5a,6,6a,7,10,10a,12-octahydrotetracen-2-yl]amino}-2-oxoethyl(propyl)carbamate]",> 64,> 64,> 64,> 64,> 64,> 64,4,4,> 64,> 64,> 64,> 64,32,64,> 64,> 64,2,8,2,4,MIC (S. aureus GC 4536; Mouse Serum pre-incubation): 2 µg/mL; MIC (S. aureus GC 4536; Water pre-incubation): 2 µg/mL; MIC (S. aureus GC 6469; Mouse Serum pre-incubation): 2 µg/mL; MIC (S. aureus GC 6469; Water pre-incubation): 4 µg/mL; MIC (E. faecalis GC 4555; Mouse Serum pre-incubation): 2 µg/mL; MIC (E. faecalis GC 4555; Water pre-incubation): 8 µg/mL; MIC (E. faecalis GC 2265; Mouse Serum pre-incubation): 2 µg/mL; MIC (E. faecalis GC 2265; Water pre-incubation): 8 µg/mL; MIC (E. faecalis GC 2267; Mouse Serum pre-incubation): 2 µg/mL; MIC (E. faecalis GC 2267; Water pre-incubation): 8 µg/mL; MIC (E. faecium GC 2243; Mouse Serum pre-incubation): 2 µg/mL; MIC (E. faecium GC 2243; Water pre-incubation): 4 µg/mL; MIC (S. pneumoniae* GC 4465; Mouse Serum pre-incubation): 2 µg/mL; MIC (S. pneumoniae* GC 4465; Water pre-incubation): 4 µg/mL; MIC (S. agalactiae GC 4564; Mouse Serum pre-incubation): 16 µg/mL; MIC (S. agalactiae GC 4564; Water pre-incubation): 16 µg/mL; MIC (Staph.; [1]): 1 to 8 µg/mL; MIC (Staph.; [2]): 2 to 8 µg/mL
"CCCN(CC(=O)Nc1cc(N(C)C)c2c(c1O)C(=O)C1=C(O)[C@]3(O)C(=O)C(C(N)=O)=C(O)[C@@H](N(C)C)[C@@H]3C[C@@H]1C2)C(=O)OCC(C)C [Example 16, isobutyl 2-{[(5aR,6aS,7S,10aS)-9-(aminocarbonyl)-4,7-bis(dimethylamino)-1,8,10a,11-tetrahydroxy-10,12-dioxo-5,5a,6,6a,7,10,10a,12-octahydrotetracen-2-yl]amino}-2-oxoethyl(propyl)carbamate]",> 64,> 64,> 64,> 64,> 64,> 64,2,4,> 64,> 64,64,> 64,16,64,> 64,> 64,4,8,8,8,MIC (S. aureus GC 4536; Mouse Serum pre-incubation): 2 µg/mL; MIC (S. aureus GC 4536; Water pre-incubation): 4 µg/mL; MIC (S. aureus GC 6469; Mouse Serum pre-incubation): 4 µg/mL; MIC (S. aureus GC 6469; Water pre-incubation): 8 µg/mL; MIC (E. faecalis GC 4555; Mouse Serum pre-incubation): 4 µg/mL; MIC (E. faecalis GC 4555; Water pre-incubation): 8 µg/mL; MIC (E. faecalis GC 2265; Mouse Serum pre-incubation): 4 µg/mL; MIC (E. faecalis GC 2265; Water pre-incubation): 8 µg/mL; MIC (E. faecalis GC 2267; Mouse Serum pre-incubation): 4 µg/mL; MIC (E. faecalis GC 2267; Water pre-incubation): 8 µg/mL; MIC (E. faecium GC 2243; Mouse Serum pre-incubation): 4 µg/mL; MIC (E. faecium GC 2243; Water pre-incubation): 8 µg/mL; MIC (S. pneumoniae* GC 4465; Mouse Serum pre-incubation): 4 µg/mL; MIC (S. pneumoniae* GC 4465; Water pre-incubation): 4 µg/mL; MIC (S. agalactiae GC 4564; Mouse Serum pre-incubation): 16 µg/mL; MIC (S. agalactiae GC 4564; Water pre-incubation): 16 µg/mL; MIC (Staph.; [1]): 2 to 8 µg/mL; MIC (Staph.; [2]): 4 to 8 µg/mL
